From patent US9034921B2, “Diphenylmethane derivatives as SGLT2 inhibitors” (GREEN CROSS CORPORATION, priority 2011, dated 2015)

target: human SGLT2 (Homo sapiens (Human), UniProt P31639); experiment: Inhibitory effects on human SGLT2 activities (14C-AMG uptake, sodium-dependent glucose transport assay); format: cell-based; conditions: CHO cells stably expressing hSGLT2, 37° C., 2 h, single determinations
Excerpt: Test 1: Cloning and Cell Line Construction for Human SGLT2
Human SGLT2 (hSGLT2) gene was amplified by PCR from cDNA-Human Adult Normal Tissue Kidney (Invitrogen). The hSGLT2 sequence was cloned into pcDNA3.1(+) for mammalian expression and stably transfected into chinese hamster ovary (CHO) cells. SGLT2-expressing clones were selected based on resistance to G418 antibiotic (Geneticin) and activity in the ^14C-α-methyl-D-glucopyranoside (^14C-AMG) uptake assay.
Test 2: Inhibitory Effects on Human SGLT2 Activities
For sodium-dependent glucose transport assay, cells expressing hSGLT2 were seeded into a 96-well culture plate at a density of 5×10^4 cells/well in RPMI medium 1640 containing 10% fetal bovine serum. The cells were used 1 day after plating. They were incubated in pretreatment buffer (10 mM HEPES, 5 mM Tris, 140 mM choline chloride, 2 mM KCl, 1 mM CaCl2, and 1 mM MgCl2, pH 7.4) at 37° C. for 10 min. They were then incubated in uptake buffer (10 mM HEPES, 5 mM Tris, 140 mM NaCl, 2 mM KCl, 1 mM CaCl2, 1 mM MgCl2, and 1 mM ^14C-nonlabeled AMG pH 7.4) containing ^14C-labeled AMG (8 μM) and the inventive compound or dimethyl sulfoxide (DMSO) vehicle at 37° C. for 2 h. Cells were washed twice with washing buffer (pretreatment buffer containing 10 mM AMG at room temperature) and then the radioactivity was measured using a liquid scintillation counter. IC50 was determined by nonlinear regression analysis using GraphPad PRISM [Katsuno, K. et al. J. Pharmacol. Exp. Ther. 2007, 320, 323-330; Han, S. et al. Diabetes, 2008, 57, 1723-1729].

Chain of human SGLT2 (P31639 whole entry): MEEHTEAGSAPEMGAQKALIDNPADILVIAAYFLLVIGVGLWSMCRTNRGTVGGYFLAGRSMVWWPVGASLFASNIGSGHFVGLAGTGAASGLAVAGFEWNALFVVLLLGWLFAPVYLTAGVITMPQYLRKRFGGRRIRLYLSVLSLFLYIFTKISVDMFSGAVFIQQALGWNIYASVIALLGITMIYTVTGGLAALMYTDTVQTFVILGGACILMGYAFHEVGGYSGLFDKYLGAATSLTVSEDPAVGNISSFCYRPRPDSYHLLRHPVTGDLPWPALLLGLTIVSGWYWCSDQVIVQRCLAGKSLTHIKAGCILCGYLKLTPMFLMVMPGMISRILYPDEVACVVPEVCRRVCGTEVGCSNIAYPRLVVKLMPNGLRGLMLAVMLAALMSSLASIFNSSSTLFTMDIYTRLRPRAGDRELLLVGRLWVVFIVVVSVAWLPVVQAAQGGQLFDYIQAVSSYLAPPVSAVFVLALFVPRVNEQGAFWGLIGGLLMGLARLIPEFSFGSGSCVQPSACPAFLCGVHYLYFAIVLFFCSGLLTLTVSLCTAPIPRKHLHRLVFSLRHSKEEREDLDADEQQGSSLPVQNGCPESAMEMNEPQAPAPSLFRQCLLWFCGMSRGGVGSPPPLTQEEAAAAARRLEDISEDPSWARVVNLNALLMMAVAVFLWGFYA

| SMILES | IC50 |
| --- | --- |
| COc1ccc(Cc2cc([C@@H]3O[C@H](CO)[C@@H](O)[C@H](O)[C@H]3O)c3c(c2Br)CCC3)cc1 [Example E001, (2S,3R,4R,5S,6R)-2-(7-Bromo-6-(4-methoxybenzyl)-2,3-dihydro-1H-inden-4-yl)-6-(hydroxymethyl)tetrahydro-2H-pyran-3,4,5-triol] | 1.15 nM |
| CCOc1ccc(Cc2cc3c(c([C@@H]4O[C@H](CO)[C@@H](O)[C@H](O)[C@H]4O)c2)CCC3)cc1 [Example E002, (2S,3R,4R,5S,6R)-2-(6-(4-Ethoxybenzyl)-2,3-dihydro-1H-inden-4-yl)-6-(hydroxymethyl)tetrahydro-2H-pyran-3,4,5-triol] | 9 nM |
| CCOc1ccc(Cc2cc([C@@H]3O[C@H](CO)[C@@H](O)[C@H](O)[C@H]3O)c3c(c2Br)CCC3)cc1 [Example E003, (2S,3R,4R,5S,6R)-2-(7-Bromo-6-(4-ethoxybenzyl)-2,3-dihydro-1H-inden-4-yl)-6-(hydroxymethyl)tetrahydro-2H-pyran-3,4,5-triol] | 0.738 nM |
| CCc1ccc(Cc2cc([C@@H]3O[C@H](CO)[C@@H](O)[C@H](O)[C@H]3O)c3c(c2Br)CCC3)cc1 [Example E004, (2S,3R,4R,5S,6R)-2-(7-Bromo-6-(4-ethylbenzyl)-2,3-dihydro-1H-inden-4-yl)-6-(hydroxymethyl)tetrahydro-2H-pyran-3,4,5-triol] | 0.661 nM |
| COc1ccc(Cc2cc([C@@H]3O[C@H](CO)[C@@H](O)[C@H](O)[C@H]3O)c3c(c2Cl)CCC3)cc1 [Example E005, (2S,3R,4R,5S,6R)-2-(7-Chloro-6-(4-methoxybenzyl)-2,3-dihydro-1H-inden-4-yl)-6-(hydroxymethyl)tetrahydro-2H-pyran-3,4,5-triol] | 0.681 nM |
| COc1ccc(Cc2cc([C@@H]3O[C@H](CO)[C@@H](O)[C@H](O)[C@H]3O)c3c(c2F)CCC3)cc1 [Example E006, (2S,3R,4R,5S,6R)-2-(7-Fluoro-6-(4-methoxybenzyl)-2,3-dihydro-1H-inden-4-yl)-6-(hydroxymethyl)tetrahydro-2H-pyran-3,4,5-triol] | 2.03 nM |
| COc1ccc(Cc2cc([C@@H]3O[C@H](CO)[C@@H](O)[C@H](O)[C@H]3O)c3c(c2C)CCC3)cc1 [Example E007, (2R,3S,4R,5R,6S)-2-(Hydroxymethyl)-6-(6-(4-methoxybenzyl)-7-methyl-2,3-dihydro-1H-inden-4-yl)tetrahydro-2H-pyran-3,4,5-triol] | 0.793 nM |
| CCOc1ccc(Cc2cc([C@@H]3O[C@H](CO)[C@@H](O)[C@H](O)[C@H]3O)c3c(c2Cl)CCC3)cc1 [Example E008, (2S,3R,4R,5S,6R)-2-(7-Chloro-6-(4-ethoxybenzyl)-2,3-dihydro-1H-inden-4-yl)-6-(hydroxymethyl)tetrahydro-2H-pyran-3,4,5-triol] | 0.551 nM |
| CCc1ccc(Cc2cc([C@@H]3O[C@H](CO)[C@@H](O)[C@H](O)[C@H]3O)c3c(c2Cl)CCO3)cc1 [Example E010, (2S,3R,4R,5S,6R)-2-(4-Chloro-5-(4-ethylbenzyl)-2,3-dihydrobenzofuran-7-yl)-6-(hydroxymethyl)tetrahydro-2H-pyran-3,4,5-triol] | 0.884 nM |
| CCOc1ccc(Cc2cc([C@@H]3O[C@H](CO)[C@@H](O)[C@H](O)[C@H]3O)c3c(c2Cl)CC(C)O3)cc1 (stereo partly drawn) [Example E011, (2S,3R,4R,5S,6R)-2-(4-Chloro-5-(4-ethoxybenzyl)-2-methyl-2,3-dihydrobenzofuran-7-yl)-6-(hydroxymethyl)tetrahydro-2H-pyran-3,4,5-triol] | 1.28 nM |
| CCOc1ccc(Cc2cc([C@@H]3O[C@H](CO)[C@@H](O)[C@H](O)[C@H]3O)c3c(c2Cl)CCCO3)cc1 [Example E012, (2S,3R,4R,5S,6R)-2-(5-Chloro-6-(4-ethoxybenzyl)chroman-8-yl)-6-(hydroxymethyl)tetrahydro-2H-pyran-3,4,5-triol] | 1.55 nM |
| CCOc1ccc(Cc2cc([C@@H]3O[C@H](CO)[C@@H](O)[C@H](O)[C@H]3O)c3c(c2Cl)OCCO3)cc1 [Example E013, (2S,3R,4R,5S,6R)-2-(8-Chloro-7-(4-ethoxybenzyl)-2,3-dihydrobenzo[b][1,4]dioxin-5-yl)-6-(hydroxymethyl)tetrahydro-2H-pyran-3,4,5-triol] | 1.27 nM |
| COc1ccc(Cc2cc([C@@H]3O[C@H](CO)[C@@H](O)[C@H](O)[C@H]3O)c3c(c2Cl)CCCO3)cc1 [Example E016, (2S,3R,4R,5S,6R)-2-(5-Chloro-6-(4-methoxybenzyl)chroman-8-yl)-6-(hydroxymethyl)tetrahydro-2H-pyran-3,4,5-triol] | 0.978 nM |
| CCc1ccc(Cc2cc([C@@H]3O[C@H](CO)[C@@H](O)[C@H](O)[C@H]3O)c3c(c2Cl)CCCO3)cc1 [Example E017, (2S,3R,4R,5S,6R)-2-(5-Chloro-6-(4-ethylbenzyl)chroman-8-yl)-6-(hydroxymethyl)tetrahydro-2H-pyran-3,4,5-triol] | 0.845 nM |
| COc1ccc(Cc2cc([C@@H]3O[C@H](CO)[C@@H](O)[C@H](O)[C@H]3O)c3c(c2Cl)OCC3)cc1 [Example E019, (2S,3R,4R,5S,6R)-2-(7-Chloro-6-(4-methoxybenzyl)-2,3-dihydrobenzofuran-4-yl)-6-(hydroxymethyl)tetrahydro-2H-pyran-3,4,5-triol] | 1.53 nM |
| CCc1ccc(Cc2cc([C@@H]3O[C@H](CO)[C@@H](O)[C@H](O)[C@H]3O)c3c(c2Cl)OCC3)cc1 [Example E020, (2S,3R,4R,5S,6R)-2-(6-(4-Ethylbenzyl)-7-chloro-2,3-dihydrobenzofuran-4-yl)-6-(hydroxymethyl)-tetrahydro-2H-pyran-3,4,5-triol] | 0.715 nM |
| COc1ccc(Cc2cc([C@@H]3O[C@H](CO)[C@@H](O)[C@H](O)[C@H]3O)c3c(c2Cl)CCO3)cc1 [Example E021, (2S,3R,4R,5S,6R)-2-(4-Chloro-5-(4-methoxybenzyl)-2,3-dihydrobenzofuran-7-yl)-6-(hydroxymethyl)tetrahydro-2H-pyran-3,4,5-triol] | 1.72 nM |
| CCOc1ccc(Cc2cc([C@@H]3O[C@H](CO)[C@@H](O)[C@H](O)[C@H]3O)c3c(c2Cl)CCO3)cc1 [Example E022, (2S,3R,4R,5S,6R)-2-(4-Chloro-5-(4-ethoxybenzyl)-2,3-dihydrobenzofuran-7-yl)-6-(hydroxymethyl)tetrahydro-2H-pyran-3,4,5-triol] | 0.833 nM |
| CCc1ccc(Cc2cc([C@@H]3O[C@H](CO)[C@@H](O)[C@H](O)[C@H]3O)c3c(c2Cl)OCCC3)cc1 [Example E023, (2S,3R,4R,5S,6R)-2-(8-Chloro-7-(4-ethylbenzyl)chroman-5-yl)-6-(hydroxymethyl)tetrahydro-2H-pyran-3,4,5-triol] | 0.753 nM |
| CCOc1ccc(Cc2cc([C@@H]3O[C@H](CO)[C@@H](O)[C@H](O)[C@H]3O)c3c(c2Cl)OCC3)cc1 [Example E024, (2S,3R,4R,5S,6R)-2-(7-Chloro-6-(4-ethoxybenzyl)-2,3-dihydrobenzofuran-4-yl)-6-(hydroxymethyl)tetrahydro-2H-pyran-3,4,5-triol] | 1.52 nM |
| OC[C@H]1O[C@@H](c2ccc(Cl)c(Cc3ccc4ncccc4c3)c2)[C@H](O)[C@@H](O)[C@@H]1O [Example E025, (2S,3R,4R,5S,6R)-2-(4-Chloro-3-(quinolin-6-ylmethyl)phenyl)-6-(hydroxymethyl)tetrahydro-2H-pyran-3,4,5-triol] | 1.85 nM |
| OC[C@H]1O[C@@H](c2ccc(Cl)c(Cc3ccc4nccnc4c3)c2)[C@H](O)[C@@H](O)[C@@H]1O [Example E026, (2S,3R,4R,5S,6R)-2-(4-Chloro-3-(quinoxalin-6-ylmethyl)phenyl)-6-(hydroxymethyl)tetrahydro-2H-pyran-3,4,5-triol] | 8.63 nM |
| OC[C@H]1O[C@@H](c2ccc(Cl)c(Cc3ccc4c(c3)OCCCO4)c2)[C@H](O)[C@@H](O)[C@@H]1O [Example E029, (2S,3R,4R,5S,6R)-2-(4-Chloro-3-((3,4-dihydro-2H-benzo[b][1,4]dioxepin-7-yl)methyl)phenyl)-6-(hydroxymethyl)tetrahydro-2H-pyran-3,4,5-triol] | 4.38 nM |
| Cc1ccc([C@@H]2O[C@H](CO)[C@@H](O)[C@H](O)[C@H]2O)cc1Cc1ccc2c(c1)OCCCO2 [Example E030, (2S,3R,4R,5S,6R)-2-(3-((3,4-Dihydro-2H-benzo[b][1,4]dioxepin-7-yl)methyl)-4-methylphenyl)-6-(hydroxymethyl)tetrahydro-2H-pyran-3,4,5-triol] | 9.62 nM |
| OC[C@H]1O[C@@H](c2ccc(Cl)c(Cc3ccc4sccc4c3)c2)[C@H](O)[C@@H](O)[C@@H]1O [Example E031, (2S,3R,4R,5S,6R)-2-(3-(Benzo[b]thiophen-5-ylmethyl)-4-chlorophenyl)-6-(hydroxymethyl)tetrahydro-2H-pyran-3,4,5-triol] | 0.865 nM |
| OC[C@H]1O[C@@H](c2ccc(Cl)c(Cc3ccc4c(c3)CCS4)c2)[C@H](O)[C@@H](O)[C@@H]1O [Example E032, (2S,3R,4R,5S,6R)-2-(4-Chloro-3-((2,3-dihydrobenzo[b]thiophen-5-yl)methyl)phenyl)-6-(hydroxymethyl)tetrahydro-2H-pyran-3,4,5-triol] | 2.16 nM |
